Key:
Assay in all cases: relative viability (nuclei count vs DMSO), 5 days (fraction); higher = more cells survive
[1] = system: NCI-H1944
Procedure, shortened: (§1)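 Relative viability divides the nuclei count in treated wells by that in vehicle wells. Lung cancer cell lines were seeded in 1536-well plates, dosed by pin tool the next day, and fixed and stained after 5 days in one step with final 0.05% Triton X-100, 1% formaldehyde and 1 ug/ml Hoechst. Dosing was a single drug or a fixed anchor-drug dose plus five library-drug doses (not always all listed) in √10 steps, and values are medians of duplicate plates imaged at 4×.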

[2] = system: NCI-H1437
Procedure, shortened: as §1

[3] = system: NCI-H1650
Procedure, shortened: as §1

[4] = system: HCC-827
Procedure, shortened: as §1

[5] = system: RERF-LC-KJ
Procedure, shortened: as §1

[6] = system: NCI-H647
Procedure, shortened: as §1

[7] = system: NCI-H2087
Procedure, shortened: as §1

[8] = system: NCI-H322M
Procedure, shortened: as §1

[9] = system: NCI-H2405
Procedure, shortened: as §1

[10] = system: LCLC-103H
Procedure, shortened: as §1

[11] = system: CAL-12T
Procedure, shortened: as §1

[12] = system: NCI-H1792
Procedure, shortened: as §1

[13] = system: NCI-H727
Procedure, shortened: as §1

[14] = system: NCI-H2228
Procedure, shortened: as §1

[15] = system: BEN
Procedure, shortened: as §1

[16] = system: LCLC-97TM1
Procedure, shortened: as §1

[17] = system: 201T
Procedure, shortened: as §1

[18] = system: NCI-H1793
Procedure, shortened: as §1

[19] = system: SK-LU-1
Procedure, shortened: as §1

[20] = system: NCI-H3122
Procedure, shortened: as §1

[21] = system: NCI-H1395
Procedure, shortened: as §1

[22] = system: LXF-289
Procedure, shortened: as §1

Cc1sc2c(c1C)C(c1ccc(Cl)cc1)=N[C@@H](CC(=O)OC(C)(C)C)c1nnc(C)n1-2 [JQ1] + CC(=O)c1c(C)c2cnc(Nc3ccc(N4CCNCC4)cn3)nc2n(C2CCCC2)c1=O [Palbociclib] (partner 0.5 µM)
relative viability ([1]; first compound 0.04 µM): 0.327 | relative viability ([1]; first compound 0.1265 µM): 0.308 | relative viability ([1]; first compound 0.4 µM): 0.232 | relative viability ([1]; first compound 1.265 µM): 0.217 | relative viability ([1]; first compound 4 µM): 0.179 | relative viability ([2]; first compound 0.04 µM): 0.266 | relative viability ([2]; first compound 0.1265 µM): 0.251 | relative viability ([2]; first compound 0.4 µM): 0.218 | relative viability ([2]; first compound 1.265 µM): 0.296 | relative viability ([2]; first compound 4 µM): 0.217 | relative viability ([3]; first compound 0.04 µM): 0.322 | relative viability ([3]; first compound 0.1265 µM): 0.264 | relative viability ([3]; first compound 0.4 µM): 0.256 | relative viability ([3]; first compound 1.265 µM): 0.111 | relative viability ([3]; first compound 4 µM): 0.134 | relative viability ([4]; first compound 0.04 µM): 0.528 | relative viability ([4]; first compound 0.1265 µM): 0.388 | relative viability ([4]; first compound 1.265 µM): 0.279 | relative viability ([4]; first compound 4 µM): 0.252 | relative viability ([5]; first compound 0.04 µM): 1.13 | relative viability ([5]; first compound 0.1265 µM): 0.868 | relative viability ([5]; first compound 0.4 µM): 0.887 | relative viability ([5]; first compound 1.265 µM): 0.254 | relative viability ([5]; first compound 4 µM): 0.246 | relative viability ([6]; first compound 0.04 µM): 0.372 | relative viability ([6]; first compound 0.1265 µM): 0.231 | relative viability ([6]; first compound 0.4 µM): 0.13 | relative viability ([6]; first compound 1.265 µM): 0.113 | relative viability ([6]; first compound 4 µM): 0.0792 | relative viability ([7]; first compound 0.04 µM): 0.234 | relative viability ([7]; first compound 0.1265 µM): 0.214 | relative viability ([7]; first compound 0.4 µM): 0.153 | relative viability ([7]; first compound 1.265 µM): 0.157 | relative viability ([7]; first compound 4 µM): 0.163 | relative viability ([8]; first compound 0.04 µM): 0.477 | relative viability ([8]; first compound 0.1265 µM): 0.491 | relative viability ([8]; first compound 0.4 µM): 0.428 | relative viability ([8]; first compound 1.265 µM): 0.385 | relative viability ([8]; first compound 4 µM): 0.406 | relative viability ([9]; first compound 0.04 µM): 0.571 | relative viability ([9]; first compound 0.4 µM): 0.522 | relative viability ([9]; first compound 1.265 µM): 0.471 | relative viability ([9]; first compound 4 µM): 0.311 | relative viability ([10]; first compound 0.04 µM): 0.46 | relative viability ([10]; first compound 0.1265 µM): 0.438 | relative viability ([10]; first compound 0.4 µM): 0.42 | relative viability ([10]; first compound 1.265 µM): 0.419 | relative viability ([10]; first compound 4 µM): 0.328 | relative viability ([11]; first compound 0.04 µM): 0.413 | relative viability ([11]; first compound 0.1265 µM): 0.377 | relative viability ([11]; first compound 0.4 µM): 0.226 | relative viability ([11]; first compound 1.265 µM): 0.114 | relative viability ([11]; first compound 4 µM): 0.233 | relative viability ([12]; first compound 0.04 µM): 0.6 | relative viability ([12]; first compound 0.4 µM): 0.538 | relative viability ([12]; first compound 1.265 µM): 0.446 | relative viability ([12]; first compound 4 µM): 0.385 | relative viability ([13]; first compound 0.04 µM): 0.63 | relative viability ([13]; first compound 0.1265 µM): 0.576 | relative viability ([13]; first compound 0.4 µM): 0.61 | relative viability ([13]; first compound 1.265 µM): 0.538 | relative viability ([13]; first compound 4 µM): 0.581 | relative viability ([14]; first compound 0.04 µM): 0.657 | relative viability ([14]; first compound 0.1265 µM): 0.704 | relative viability ([14]; first compound 0.4 µM): 0.641 | relative viability ([14]; first compound 1.265 µM): 0.293 | relative viability ([14]; first compound 4 µM): 0.379 | relative viability ([15]; first compound 0.04 µM): 0.435 | relative viability ([15]; first compound 0.1265 µM): 0.443 | relative viability ([15]; first compound 0.4 µM): 0.476 | relative viability ([15]; first compound 1.265 µM): 0.376 | relative viability ([15]; first compound 4 µM): 0.325 | relative viability ([16]; first compound 0.04 µM): 0.255 | relative viability ([16]; first compound 0.1265 µM): 0.159 | relative viability ([16]; first compound 0.4 µM): 0.15 | relative viability ([16]; first compound 1.265 µM): 0.0928 | relative viability ([16]; first compound 4 µM): 0.0931 | relative viability ([17]; first compound 0.04 µM): 0.334 | relative viability ([17]; first compound 0.4 µM): 0.298 | relative viability ([17]; first compound 1.265 µM): 0.313 | relative viability ([17]; first compound 4 µM): 0.268 | relative viability ([18]; first compound 0.04 µM): 0.331 | relative viability ([18]; first compound 0.1265 µM): 0.307 | relative viability ([18]; first compound 0.4 µM): 0.274 | relative viability ([18]; first compound 1.265 µM): 0.335 | relative viability ([18]; first compound 4 µM): 0.334 | relative viability ([19]; first compound 0.04 µM): 0.405 | relative viability ([19]; first compound 0.1265 µM): 0.359 | relative viability ([19]; first compound 0.4 µM): 0.35 | relative viability ([19]; first compound 1.265 µM): 0.282 | relative viability ([19]; first compound 4 µM): 0.239 | relative viability ([20]; first compound 0.04 µM): 0.22 | relative viability ([20]; first compound 0.1265 µM): 0.203 | relative viability ([20]; first compound 0.4 µM): 0.191 | relative viability ([20]; first compound 1.265 µM): 0.185 | relative viability ([20]; first compound 4 µM): 0.139 | relative viability ([21]; first compound 0.04 µM): 0.591 | relative viability ([21]; first compound 0.1265 µM): 0.556 | relative viability ([21]; first compound 0.4 µM): 0.602 | relative viability ([21]; first compound 1.265 µM): 0.443 | relative viability ([21]; first compound 4 µM): 0.395 | relative viability ([22]; first compound 0.04 µM): 0.562 | relative viability ([22]; first compound 0.1265 µM): 0.591 | relative viability ([22]; first compound 0.4 µM): 0.576 | relative viability ([22]; first compound 1.265 µM): 0.426 | relative viability ([22]; first compound 4 µM): 0.353

From the supplement of paper PMC10307832
